Reference: patent US20240148821A1, “PHARMACEUTICAL USE OF CYCLIC PEPTIDE COMPOUND” (CHUGAI SEIYAKU KABUSHIKI KAISHA, priority 2021, published 2024)
Numbered stars: 1 amine (or outer) side, 2 acyl side, 3 side chain; on linkers, the order of the positions; unused ones are H or OH. Bridge positions count the residues as written; N and C are the ends. Square brackets hold non-standard residues; d marks the D form. Peptide text beside a SMILES is read from it. * marks the point of attachment. hPhe(3-Cl-4-CF3) = N[C@@H](CCc1ccc(C(F)(F)F)c(Cl)c1)C(=O)O; 3Oxa8azabicyclo(3.2.1)octane = C1CC2COCC1N2*; NMePhe(4-Me) = CN[C@@H](Cc1ccc(C)cc1)C(=O)O; NMePhe(4-F) = CN[C@@H](Cc1ccc(F)cc1)C(=O)O; NMedβ3hAla = C[C@H](CC(=O)[*:2])N(C)[*:1]; NMeAla(cPent) = CN[C@@H](CC1CCCC1)C(=O)O; X28 = O=C(CN(C1CC2(COC2)C1)[*:1])[*:2]; NMe3Pal = CN[C@@H](Cc1cccnc1)C(=O)O; NMeCha = CN[C@@H](CC1CCCCC1)C(=O)O; NMeGly(cPr) = CN[C@H](C(=O)O)C1CC1; Hyp = O=C(O)[C@@H]1C[C@@H](O)CN1; NMeChg = CN[C@H](C(=O)O)C1CCCCC1; NMeI = CC[C@H](C)[C@H](NC)C(=O)O; NMeD = CN[C@@H](CC(=O)O)C(=O)O; NMeL = CN[C@@H](CC(C)C)C(=O)O; Ahp(2) = CCCCC[C@H](N)C(=O)O; NMeNva = CCC[C@H](NC)C(=O)O; NMeV = CN[C@H](C(=O)O)C(C)C; NMeS = CN[C@@H](CO)C(=O)O; Morpholide = C1CN(*)CCO1; NMeA = CN[C@@H](C)C(=O)O; Nle = CCCC[C@H](N)C(=O)O; Piperidide = C1CCN(*)CC1; Pyrrolidide = C1CCN(*)C1; dNMeA = CN[C@H](C)C(=O)O; Ac5c = NC1(C(=O)O)CCCC1; Aze = O=C(O)[C@@H]1CCN1; Cyclopropyl = C1CC1*; Sar = CNCC(=O)O; Propyl = CCC*

Experiments:
[1] = target: protein-protein interaction between Kras and SOS1 (biotin-tagged human Kras loaded with GDP, His-tagged human SOS1) (Homo sapiens (Human), UniProt P01116, G12D); test: Protein-protein interaction inhibition between Kras and SOS1 (KrasG12D-SOS PPI) using AlphaScreen; assay type: biochemical; conditions: AlphaScreen; biotin-tagged human Kras loaded with GDP, His-tagged human SOS1; read-out: KRAS G12D-SOS PPI IC50;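 further: kras produced in E. coli, Ni-coupled donor beads and streptavidin acceptor beads, excitation 680 nm with emission detected at 520–620 nm via singlet oxygen transfer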
[2] = tested on: Human pancreatic cancer cell line AsPC-1 (G12D mutation Kras); test: AsPC-1 cell growth inhibition (AsPC-1 CGI); assay type: cell-based; conditions: read-out: AsPC-1 cell growth inhibition, 50% growth inhibitory concentration (IC50 value); 96 hours, CellTiter-Glo, values classified in ranges
Protocol: Test compounds were serially dilated with dimethyl sulfoxide, and 200 nL was then dispensed to a U-bottom 96-well plate using Labcyte Echo. […] The cell suspension was dispensed to a. plate containing a test compound at 100 μL per well and incubated at 37° C. in a 5% carbon dioxide gas incubator. 96 hours later, 80 μL of CellTiter-Glo (Promega) was added to each well and fluorescence was measured.

Structure (SMILES)	IC50 [1]	IC50 [2]
CC(C)C[C@H]1C(=O)N[C@@H](COC2CC2)C(=O)N(C)[C@@H](C)C(=O)N2CC[C@H]2C(=O)N(C)[C@@H](CC2CCCCC2)C(=O)N(C)CC(=O)N[C@@H](CCc2ccc(C(F)(F)F)c(Cl)c2)C(=O)N2CCC[C@H]2C(=O)NC2(CCCC2)C(=O)N(C)[C@@H](C(C)C)C(=O)N(C)[C@H](C(=O)N2CCCCC2)CC(=O)N1C [Compound 1811] ([NMeL]S(Cyclopropyl)[NMeA][Aze][NMeCha][Sar][hPhe(3-Cl-4-CF3)]P[Ac5c][NMeV][NMeD]-Piperidide; lactam N-11)	56 nM	> 500 nM
CC[C@H](C)[C@@H]1NC(=O)[C@H](C)N(C)C(=O)C[C@@H](C(=O)N2CCCCC2)N(C)C(=O)[C@H](C(C)C)N(C)C(=O)C2(CCCC2)NC(=O)[C@@H]2CCCN2C(=O)[C@H](CCc2ccc(C(F)(F)F)c(Cl)c2)NC(=O)[C@@H](C)N(C)C(=O)[C@H](Cc2ccc(F)cc2)N(C)C(=O)[C@@H]2CCN2C(=O)[C@H](C)N(C)C1=O [Compound 1816] ([NMeA]I[NMeA][Aze][NMePhe(4-F)][dNMeA][hPhe(3-Cl-4-CF3)]P[Ac5c][NMeV][NMeD]-Piperidide; lactam N-11)	12 nM	> 500 nM
CC[C@H](C)[C@@H]1NC(=O)[C@H](CC(C)C)N(C)C(=O)C[C@@H](C(=O)N2CCCCC2)N(C)C(=O)[C@H](CC2CCCC2)N(C)C(=O)C2(CCCC2)NC(=O)[C@@H]2CCCN2C(=O)[C@H](CCc2ccc(C(F)(F)F)c(Cl)c2)NC(=O)CN(C)C(=O)[C@H](CC2CCCCC2)N(C)C(=O)[C@@H]2CCN2C(=O)[C@H](C)N(C)C1=O [Compound 1820] ([NMeL]I[NMeA][Aze][NMeCha][Sar][hPhe(3-Cl-4-CF3)]P[Ac5c][NMeAla(cPent)][NMeD]-Piperidide; lactam N-11)	14 nM	> 500 nM
CC[C@H](C)[C@@H]1NC(=O)[C@H](CC(C)C)N(C)C(=O)C[C@@H](C(=O)N2CCCCC2)N(C)C(=O)[C@H](C2CC2)N(C)C(=O)C2(CCCC2)NC(=O)[C@@H]2CCCN2C(=O)[C@H](CCc2ccc(C(F)(F)F)c(Cl)c2)NC(=O)CN(C)C(=O)[C@H](CC2CCCCC2)N(C)C(=O)[C@@H]2CCN2C(=O)[C@H](C)N(C)C1=O [Compound 1822] ([NMeL]I[NMeA][Aze][NMeCha][Sar][hPhe(3-Cl-4-CF3)]P[Ac5c][NMeGly(cPr)][NMeD]-Piperidide; lactam N-11)	50 nM	> 500 nM
CCCC[C@@H]1NC(=O)[C@H](CC(C)C)N(C)C(=O)C[C@@H](C(=O)N2CCCCC2)N(C)C(=O)[C@H](C(C)C)N(C)C(=O)C2(CCCC2)NC(=O)[C@@H]2CCCN2C(=O)[C@H](CCc2ccc(C(F)(F)F)c(Cl)c2)NC(=O)CN(C)C(=O)[C@H](CC2CCCCC2)N(C)C(=O)[C@@H]2CCN2C(=O)[C@H](C)N(C)C1=O [Compound 1823] ([NMeL][Nle][NMeA][Aze][NMeCha][Sar][hPhe(3-Cl-4-CF3)]P[Ac5c][NMeV][NMeD]-Piperidide; lactam N-11)	59 nM	> 500 nM
CCCCC[C@@H]1NC(=O)[C@H](CC(C)C)N(C)C(=O)C[C@@H](C(=O)N2CCCCC2)N(C)C(=O)[C@H](C(C)C)N(C)C(=O)C2(CCCC2)NC(=O)[C@@H]2CCCN2C(=O)[C@H](CCc2ccc(C(F)(F)F)c(Cl)c2)NC(=O)CN(C)C(=O)[C@H](CC2CCCCC2)N(C)C(=O)[C@@H]2CCN2C(=O)[C@H](C)N(C)C1=O [Compound 1826] ([NMeL][Ahp(2)][NMeA][Aze][NMeCha][Sar][hPhe(3-Cl-4-CF3)]P[Ac5c][NMeV][NMeD]-Piperidide; lactam N-11)	99 nM	> 500 nM
CC[C@H](C)[C@@H]1NC(=O)[C@H](C)N(C)C(=O)C[C@@H](C(=O)N2CCCC2)N(C)C(=O)[C@H](C(C)C)N(C)C(=O)C2(CCCC2)NC(=O)[C@@H]2CCCN2C(=O)[C@H](CCc2ccc(C(F)(F)F)c(Cl)c2)NC(=O)[C@@H](C)N(C)C(=O)[C@H](CC2CCCCC2)N(C)C(=O)[C@@H]2CCN2C(=O)[C@H](C)N(C)C1=O [Compound 1827] ([NMeA]I[NMeA][Aze][NMeCha][dNMeA][hPhe(3-Cl-4-CF3)]P[Ac5c][NMeV][NMeD]-Pyrrolidide; lactam N-11)	6.6 nM	> 500 nM
CCCOC[C@@H]1NC(=O)[C@H](CC(C)C)N(C)C(=O)C[C@@H](C(=O)N2CCCCC2)N(C)C(=O)[C@H](C(C)C)N(C)C(=O)C2(CCCC2)NC(=O)[C@@H]2CCCN2C(=O)[C@H](CCc2ccc(C(F)(F)F)c(Cl)c2)NC(=O)CN(C)C(=O)[C@H](CC2CCCCC2)N(C)C(=O)[C@@H]2CCN2C(=O)[C@H](C)N(C)C1=O [Compound 1831] ([NMeL]S(Propyl)[NMeA][Aze][NMeCha][Sar][hPhe(3-Cl-4-CF3)]P[Ac5c][NMeV][NMeD]-Piperidide; lactam N-11)	71 nM	> 500 nM
CC[C@H](C)[C@@H]1NC(=O)[C@H](CO)N(C)C(=O)C[C@@H](C(=O)N2CCCCC2)N(C)C(=O)[C@H](C(C)C)N(C)C(=O)C2(CCCC2)NC(=O)[C@@H]2CCCN2C(=O)[C@H](CCc2ccc(C(F)(F)F)c(Cl)c2)NC(=O)CN(C)C(=O)[C@H](CC2CCCCC2)N(C)C(=O)[C@@H]2CCN2C(=O)[C@H](C)N(C)C1=O [Compound 1837] ([NMeS]I[NMeA][Aze][NMeCha][Sar][hPhe(3-Cl-4-CF3)]P[Ac5c][NMeV][NMeD]-Piperidide; lactam N-11)	2 nM	> 500 nM
CC[C@H](C)[C@@H]1NC(=O)[C@H](CC(C)C)N(C)C(=O)C[C@@H](C(=O)N(C)C)N(C)C(=O)[C@H]([C@@H](C)CC)N(C)C(=O)C2(CCCC2)NC(=O)[C@@H]2CCCN2C(=O)[C@H](CCc2ccc(C(F)(F)F)c(Cl)c2)NC(=O)CN(C)C(=O)[C@H](Cc2ccc(C)cc2)N(C)C(=O)[C@@H]2CCN2C(=O)[C@H](C)N(C)C1=O [Compound 1842] ([NMeL]I[NMeA][Aze][NMePhe(4-Me)][Sar][hPhe(3-Cl-4-CF3)]P[Ac5c][NMeI][NMeD]-NMe2; lactam N-11)	0.66 nM	≤ 20 nM
CC[C@H](C)[C@@H]1NC(=O)[C@H](CC(C)C)N(C)C(=O)C[C@@H](C(=O)N2CCCC2)N(C)C(=O)[C@H]([C@@H](C)CC)N(C)C(=O)C2(CCCC2)NC(=O)[C@@H]2CCCN2C(=O)[C@H](CCc2ccc(C(F)(F)F)c(Cl)c2)NC(=O)CN(C)C(=O)[C@H](CC2CCCCC2)N(C)C(=O)[C@@H]2CCN2C(=O)[C@H](C)N(C)C1=O [Compound 1843] ([NMeL]I[NMeA][Aze][NMeCha][Sar][hPhe(3-Cl-4-CF3)]P[Ac5c][NMeI][NMeD]-Pyrrolidide; lactam N-11)	0.84 nM	≤ 20 nM
CC[C@H](C)[C@@H]1NC(=O)[C@H](CC(C)C)N(C)C(=O)C[C@@H](C)N(C)C(=O)[C@H](C2CCCCC2)N(C)C(=O)C2(CCCC2)NC(=O)[C@H](Cc2cccnc2)N(C)C(=O)[C@H](CCc2ccc(C(F)(F)F)c(Cl)c2)NC(=O)CN(C)C(=O)[C@H](CC2CCCCC2)N(C)C(=O)CN(C)C(=O)CN(C)C1=O [Compound 1849] (cyclo([Ac5c][NMeChg][NMedβ3hAla][NMeL]I[Sar][Sar][NMeCha][Sar][hPhe(3-Cl-4-CF3)][NMe3Pal]))	230 nM	> 500 nM
CCC[C@H]1C(=O)N[C@@H]([C@@H](C)CC)C(=O)N(C)CC(=O)N(C)CC(=O)N(C)[C@@H](CC2CCCC2)C(=O)N(C)CC(=O)N[C@@H](CCc2ccc(C(F)(F)F)c(Cl)c2)C(=O)N(C)[C@@H](Cc2cccnc2)C(=O)NC2(CCCC2)C(=O)N(C)[C@@H](C2CCCCC2)C(=O)N(C)[C@H](C(=O)N2CCOCC2)CC(=O)N1C [Compound 1937] ([NMeNva]I[Sar][Sar][NMeAla(cPent)][Sar][hPhe(3-Cl-4-CF3)][NMe3Pal][Ac5c][NMeChg][NMeD]-Morpholide; lactam N-11)	3.1 nM	> 500 nM
CCC[C@H]1C(=O)N[C@@H]([C@@H](C)CC)C(=O)N(C)CC(=O)N(C)CC(=O)N(C)[C@@H](CC2CCCC2)C(=O)N(C)CC(=O)N[C@@H](CCc2ccc(C(F)(F)F)c(Cl)c2)C(=O)N(C)[C@@H](Cc2cccnc2)C(=O)NC2(CCCC2)C(=O)N(C)[C@@H](C2CCCCC2)C(=O)N(C)[C@H](C(=O)N2CCCC2)CC(=O)N1C [Compound 1946] ([NMeNva]I[Sar][Sar][NMeAla(cPent)][Sar][hPhe(3-Cl-4-CF3)][NMe3Pal][Ac5c][NMeChg][NMeD]-Pyrrolidide; lactam N-11)	1.5 nM	> 500 nM
CCO[C@@H]1C[C@H]2C(=O)NC3(CCCC3)C(=O)N(C)[C@@H](C3CCCCC3)C(=O)N(C)[C@H](C(=O)N3C4CCC3COC4)CC(=O)N(C)[C@@H](CC(C)C)C(=O)N[C@@H]([C@@H](C)CC)C(=O)N(C)CC(=O)N(C)CC(=O)N(C)[C@@H](CC3CCCCC3)C(=O)N(C)CC(=O)N[C@@H](CCc3ccc(C(F)(F)F)c(Cl)c3)C(=O)N2C1 [Compound 1977] ([NMeL]I[Sar][Sar][NMeCha][Sar][hPhe(3-Cl-4-CF3)][Hyp](Et)[Ac5c][NMeChg][NMeD]-{3Oxa8azabicyclo(3.2.1)octane}; lactam N-11)	0.47 nM	≤ 20 nM
CCO[C@@H]1C[C@H]2C(=O)NC3(CCCC3)C(=O)N(C)[C@@H](C3CCCCC3)C(=O)N(C)[C@H](C(=O)N3CCOCC3)CC(=O)N(C)[C@@H](CC(C)C)C(=O)N[C@@H]([C@@H](C)CC)C(=O)N(C)CC(=O)N(C)CC(=O)N(C)[C@@H](CC3CCCCC3)C(=O)N(C)CC(=O)N[C@@H](CCc3ccc(C(F)(F)F)c(Cl)c3)C(=O)N2C1 [Compound 1990] ([NMeL]I[Sar][Sar][NMeCha][Sar][hPhe(3-Cl-4-CF3)][Hyp](Et)[Ac5c][NMeChg][NMeD]-Morpholide; lactam N-11)	0.43 nM	≤ 20 nM
CC[C@H](C)[C@@H]1NC(=O)[C@H](CC(C)C)N(C)C(=O)C[C@@H](C(=O)N2CCCCC2)N(C)C(=O)[C@H](C2CCCCC2)N(C)C(=O)C2(CCCC2)NC(=O)CN(C2CC3(COC3)C2)C(=O)[C@H](CCc2ccc(C(F)(F)F)c(Cl)c2)NC(=O)CN(C)C(=O)[C@H](CC2CCCCC2)N(C)C(=O)CN(C)C(=O)CN(C)C1=O [Compound 2030] ([NMeL]I[Sar][Sar][NMeCha][Sar][hPhe(3-Cl-4-CF3)][X28][Ac5c][NMeChg][NMeD]-Piperidide; lactam N-11)	2.3 nM	> 500 nM
